Counter-ions that a name gives are not always drawn.
Columns and labels:
[1] = The New England Journal of Medicine, 286, 808-812 (1972); cited from earlier work
complement system = conditions: reported in literature; cited from earlier work
whole complement = assay: Complement Level Reduction Test: whole complement in serum of dosed guinea pigs, capillary tube assay; type: in vivo, guinea pig; conditions: 200 mg/kg
Description: An active inhibitor protects C2 from C1 and C4; (ii) Test, Code 035 (C3-C9 inhibitor) -- This test determines the ability of the late components of human complement (C3-C9) to lyse EAC 142 in the presence of appropriate dilutions of the test compound. An active inhibitor protects EAC 142 from lysis by C3-C9; (iii) Test, Code 036 (C-Shunt inhibitor) -- In this test human erythrocytes rendered fragile are lysed in autologous serum via the shunt pathway activated by cobra venom factor in the presence of appropriate dilutions of the test compound. Inhibition of the shunt pathway results in failure of lysis; (iv) Forssman Vasculitis Test -- Here, the well known complement dependent lesion, Forssman vasculitis, is produced in guinea pigs by intradermal injection of rabbit anti-Forssman antiserum. The lesion is measured in terms of diameter, edema and hemorrhage and the extent to which a combined index of these is inhibited by prior intraperitoneal injection of the test compound at 200 mg/kg is then reported, unless otherwise stated; (v) Forssman Shock Test -- Lethal shock is produced in guinea pigs by an i.v. injection of anti-Forssman antiserum and the harmonic mean death time of treated guinea pigs is compared with that of simultaneous controls; (vi) Complement Level Reduction Test -- In this test, the above dosed guinea pigs, or others, are bled for serum and the complement level is determined in undiluted serum by the capillary tube method of U.S. Pat. No. 3,876,376 and compared to undosed control guinea pigs; and (vii) Cap 50 Test -- Here, appropriate amounts of the test compound are added to a pool of guinea pig serum in vitro, after which the undiluted serum capillary tube assay referred to above is run. The concentration of compound inhibiting 50% is reported.
With reference to Table I, guinea pigs weighing about 300 g were dosed intravenously (i.v.) or intraperitoneally (i.p.) with 200 mg/kg of the test compound dissolved in saline and adjusted to pH 7-8. One hour after dosing, the guinea pigs were decapitated, blood was collected and the serum separated. The serum was tested for whole complement using the capillary tube assay. Percent inhibition was calculated by comparison with simultaneous controls. The results appear in Table I together with results of tests, code 026, 035, 036, Cap 50, % inhibition and Forssman shock.

[2] = tested on: late components of human complement (C3-C9); assay: Test, Code 035 (C3-C9 inhibitor): lysis of EAC 142 by late components of human complement; type: cell-based; parameters: key: Negative; conditions: activity in wells, two-fold serial dilution assay
shunt pathway = assay: Test, Code 036 (C-Shunt inhibitor): lysis of fragile human erythrocytes in autologous serum via the shunt pathway activated by cobra venom factor; type: cell-based; parameters: key: Negative; conditions: activity in wells, two-fold serial dilution assay

Compound: NCCCCCC(=O)O [epsilon-aminocapronic acid]
- use in the treatment of hereditary angioneurotic edema [1]: used with success

Compound: Nc1ccc2cc(S(=O)(=O)O)cc(O)c2c1N=Nc1ccc(NC(=O)Nc2ccc(N=Nc3c(N)ccc4cc(S(=O)(=O)O)cc(O)c34)c(S(=O)(=O)O)c2)cc1S(=O)(=O)O [chlorazol fast pink, 3,3'-ureylenebis-[6-(2-amino-8-hydroxy-6-sulfo-1-naphthylazo)]benzenesulfonic acid, tetrasodium salt]
- complement inhibiting / anticomplementary effect (complement system): anticomplementary effect

Compound: Cc1ccc(C(=O)Nc2ccc(S(=O)(=O)O)c3cc(S(=O)(=O)O)cc(S(=O)(=O)O)c23)cc1NC(=O)c1cccc(NC(=O)Nc2cccc(C(=O)Nc3cc(C(=O)Nc4ccc(S(=O)(=O)O)c5cc(S(=O)(=O)O)cc(S(=O)(=O)O)c45)ccc3C)c2)c1 [Suramin]
- complement inhibiting / anticomplementary effect (complement system): competitive inhibitor of the complement system

Compound: NC[C@H]1CC[C@H](C(=O)O)CC1 [tranexamic acid]
- use in the treatment of hereditary angioneurotic edema [1]: used with success

Compound: heparin
- complement inhibiting / anticomplementary effect (complement system): anticomplementary effect

Compound: O=S(=O)(O)c1cc(NC(=S)Nc2ccc(-c3ccc(NC(=S)Nc4cc(S(=O)(=O)O)cc5cc(S(=O)(=O)O)cc(S(=O)(=O)O)c45)cc3S(=O)(=O)O)c(S(=O)(=O)O)c2)c2c(S(=O)(=O)O)cc(S(=O)(=O)O)cc2c1 [8,8'-[(2,2'-Disulfo-4,4'-biphenylylene)bis(2-thioureylene)]di-1,3,6-naphthalenetrisulfonic acid octasodium salt]
- In Vivo Activity (Guinea Pig) % Inhibition (whole complement; intraperitoneal, 30 min): -55%
- In Vivo Activity (Guinea Pig) % Inhibition (whole complement; intraperitoneal, 60 min): -55%
- In Vivo Activity (Guinea Pig) % Inhibition (whole complement; intraperitoneal, 120 min): -70%
- In Vivo Activity (Guinea Pig) % Inhibition (whole complement; intravenous, 2 min): -92%
- In Vivo Activity (Guinea Pig) % Inhibition (whole complement; intravenous, 30 min): -46%
- In Vivo Activity (Guinea Pig) % Inhibition (whole complement; intravenous, 120 min): -31%
- C-Late 035 Wells [2]: N
- Shunt Inhibition 036 Wells (shunt pathway): N

From patent publication US4107202A, “Substituted 4,4'-biphenylylene bis(2-thioureylene)di-naphthalenetrisulfonic acids and salts thereof” (American Cyanamid Company, priority 1977, dated 1978)
